# From patent publication US20240207263A1, “SELECTIVE MODULATORS OF ATAXIA TELA[…] (ATM) KINASE AND USES THEREOF” (priority 2021, published 2024)
# Biological target: ATM (Homo sapiens (Human), UniProt Q13315)
# Test: biochemical
# Type: biochemical
# Settings: not given
# Text: Assay a): ATM Biochemical Potency
# Data was collected by Caliper.
# Sequence of ATM (Q13315 whole entry, looked up): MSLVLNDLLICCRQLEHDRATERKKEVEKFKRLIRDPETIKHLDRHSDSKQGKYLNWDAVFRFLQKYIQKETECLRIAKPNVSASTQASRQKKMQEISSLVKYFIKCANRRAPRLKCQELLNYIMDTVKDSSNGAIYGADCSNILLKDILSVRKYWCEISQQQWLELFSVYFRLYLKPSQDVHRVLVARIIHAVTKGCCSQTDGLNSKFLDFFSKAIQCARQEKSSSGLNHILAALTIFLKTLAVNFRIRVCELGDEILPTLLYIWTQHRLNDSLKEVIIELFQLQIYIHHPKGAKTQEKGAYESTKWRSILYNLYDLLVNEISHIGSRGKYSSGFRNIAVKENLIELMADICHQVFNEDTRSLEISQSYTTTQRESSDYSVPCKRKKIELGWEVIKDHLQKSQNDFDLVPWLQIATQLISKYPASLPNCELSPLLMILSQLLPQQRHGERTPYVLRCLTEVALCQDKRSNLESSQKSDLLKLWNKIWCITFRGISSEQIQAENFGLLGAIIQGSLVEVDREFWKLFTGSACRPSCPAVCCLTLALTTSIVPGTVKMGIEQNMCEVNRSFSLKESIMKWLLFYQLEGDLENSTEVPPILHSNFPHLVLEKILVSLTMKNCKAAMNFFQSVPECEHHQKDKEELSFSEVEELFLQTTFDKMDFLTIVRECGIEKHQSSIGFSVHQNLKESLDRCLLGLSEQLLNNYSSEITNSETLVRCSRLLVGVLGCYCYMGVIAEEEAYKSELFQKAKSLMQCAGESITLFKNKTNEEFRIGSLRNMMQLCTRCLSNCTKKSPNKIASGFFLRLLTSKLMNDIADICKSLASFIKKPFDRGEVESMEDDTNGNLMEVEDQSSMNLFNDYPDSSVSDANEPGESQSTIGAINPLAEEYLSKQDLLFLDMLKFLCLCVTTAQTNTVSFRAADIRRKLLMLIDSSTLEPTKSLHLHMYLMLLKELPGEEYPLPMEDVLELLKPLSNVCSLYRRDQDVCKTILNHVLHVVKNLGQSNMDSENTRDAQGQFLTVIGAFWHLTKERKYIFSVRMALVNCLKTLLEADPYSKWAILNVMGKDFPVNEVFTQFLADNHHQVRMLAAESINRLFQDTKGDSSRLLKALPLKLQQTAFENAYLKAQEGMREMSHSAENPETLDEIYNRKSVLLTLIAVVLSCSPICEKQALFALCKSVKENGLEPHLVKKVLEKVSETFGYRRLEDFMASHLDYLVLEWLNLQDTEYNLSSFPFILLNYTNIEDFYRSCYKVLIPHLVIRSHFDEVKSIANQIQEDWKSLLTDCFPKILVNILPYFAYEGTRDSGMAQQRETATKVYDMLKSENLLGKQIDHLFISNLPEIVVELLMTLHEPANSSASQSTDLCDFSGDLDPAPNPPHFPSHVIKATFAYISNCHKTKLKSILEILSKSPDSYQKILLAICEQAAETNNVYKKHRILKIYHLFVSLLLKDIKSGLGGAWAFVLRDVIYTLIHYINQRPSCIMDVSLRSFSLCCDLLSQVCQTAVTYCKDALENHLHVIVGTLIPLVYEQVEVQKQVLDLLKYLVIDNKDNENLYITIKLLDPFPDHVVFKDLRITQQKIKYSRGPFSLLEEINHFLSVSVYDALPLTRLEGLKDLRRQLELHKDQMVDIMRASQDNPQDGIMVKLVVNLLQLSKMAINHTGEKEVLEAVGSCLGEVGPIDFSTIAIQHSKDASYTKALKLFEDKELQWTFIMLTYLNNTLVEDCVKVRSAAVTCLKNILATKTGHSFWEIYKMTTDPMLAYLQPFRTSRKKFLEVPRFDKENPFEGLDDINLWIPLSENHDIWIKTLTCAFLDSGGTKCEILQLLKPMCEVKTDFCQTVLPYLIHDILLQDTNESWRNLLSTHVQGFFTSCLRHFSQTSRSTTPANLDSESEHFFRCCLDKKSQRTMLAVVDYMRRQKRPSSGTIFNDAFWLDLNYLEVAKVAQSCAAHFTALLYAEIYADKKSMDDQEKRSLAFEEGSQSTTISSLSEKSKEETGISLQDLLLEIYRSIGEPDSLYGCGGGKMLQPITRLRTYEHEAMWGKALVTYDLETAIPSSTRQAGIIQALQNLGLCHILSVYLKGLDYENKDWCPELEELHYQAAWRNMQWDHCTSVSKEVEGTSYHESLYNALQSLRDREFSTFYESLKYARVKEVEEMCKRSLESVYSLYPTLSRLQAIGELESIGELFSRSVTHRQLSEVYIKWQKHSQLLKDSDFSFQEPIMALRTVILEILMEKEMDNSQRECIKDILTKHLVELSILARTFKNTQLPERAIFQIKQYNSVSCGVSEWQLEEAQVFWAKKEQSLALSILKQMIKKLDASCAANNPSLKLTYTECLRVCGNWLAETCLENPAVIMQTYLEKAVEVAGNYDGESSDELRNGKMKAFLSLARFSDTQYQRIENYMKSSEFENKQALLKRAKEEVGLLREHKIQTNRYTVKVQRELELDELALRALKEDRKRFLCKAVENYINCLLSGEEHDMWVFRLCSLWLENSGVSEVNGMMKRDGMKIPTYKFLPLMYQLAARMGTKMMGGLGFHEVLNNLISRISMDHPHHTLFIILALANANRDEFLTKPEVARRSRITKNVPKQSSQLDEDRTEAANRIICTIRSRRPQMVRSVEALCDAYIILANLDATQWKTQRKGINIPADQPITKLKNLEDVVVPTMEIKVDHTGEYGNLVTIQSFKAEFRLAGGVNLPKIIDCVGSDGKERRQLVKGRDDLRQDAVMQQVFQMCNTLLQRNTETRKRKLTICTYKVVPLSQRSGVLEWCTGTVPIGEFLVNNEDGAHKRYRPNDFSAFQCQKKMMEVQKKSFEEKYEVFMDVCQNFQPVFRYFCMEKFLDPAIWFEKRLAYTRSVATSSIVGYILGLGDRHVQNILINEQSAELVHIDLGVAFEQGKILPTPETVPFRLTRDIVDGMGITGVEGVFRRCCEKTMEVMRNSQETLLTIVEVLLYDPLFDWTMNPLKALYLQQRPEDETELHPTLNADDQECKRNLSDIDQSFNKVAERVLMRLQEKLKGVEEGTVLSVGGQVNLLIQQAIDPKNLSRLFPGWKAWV
row,Structure (SMILES),IC50 [nM]
1,"Cn1c(=O)n(C2CCOCC2)c2c3cc(-c4ccc(COCCN5CCC6(CC6)C5)nc4)ccc3nnc21 [Example 94, 8-(6-((2-(5-azaspiro[2.4]heptan-5-yl)ethoxy)methyl)pyridin-3-yl)-3-methyl-1-(tetrahydro-2H-pyran-4-yl)-1H-imidazo[4,5-c]cinnolin-2(3H)-one]",24
2,"C[C@@H](OCCN1CCC2(COC2)C1)c1ccc(-c2ccc3nnc4c(c3c2)n(C2CCOCC2)c(=O)n4C)cn1 [Example 116, (R)-8-(6-(1-(2-(2-oxa-6-azaspiro[3.4]octan-6-yl)ethoxy)ethyl)pyridin-3-yl)-3-methyl-1-(tetrahydro-2H-pyran-4-yl)-1H-imidazo[4,5-c]cinnolin-2(3H)-one]",2.9

# Same assay, conditions: read-out: ATM IC50
row,Structure (SMILES),IC50 [nM]
1,"CC(C)n1c(=O)n(C)c2nnc3ccc(-c4ccc([C@@H](C)OCCN5CCC(C#N)CC5)nc4)cc3c21 [Example 91, (R)-1-(2-(1-(5-(1-isopropyl-3-methyl-2-oxo-2,3-dihydro-1H-imidazo[4,5-c]cinnolin-8-yl)pyridin-2-yl)ethoxy)ethyl)piperidine-4-carbonitrile]",8.5
2,"CC(C)OC1CCN(CCO[C@H](C)c2ccc(-c3ccc4nnc5c(c4c3)n(C(C)C)c(=O)n5C)cn2)CC1 [Example 92, (R)-8-(6-(1-(2-(4-isopropoxypiperidin-1-yl)ethoxy)ethyl)pyridin-3-yl)-1-isopropyl-3-methyl-1H-imidazo[4,5-c]cinnolin-2(3H)-one]",1.5
3,"CC(C)O[C@@H]1CCN(CCO[C@H](C)c2ccc(-c3ccc4nnc5c(c4c3)n(C(C)C)c(=O)n5C)cn2)C1 [Example 93, 8-(6-((R)-1-(2-((R)-3-isopropoxypyrrolidin-1-yl)ethoxy)ethyl)pyridin-3-yl)-1-isopropyl-3-methyl-1H-imidazo[4,5-c]cinnolin-2(3H)-one]",4.9
4,"Cn1c(=O)n(C2CCOCC2)c2c3cc(-c4ccc(COCCN5CCC(F)CC5)nc4)ccc3nnc21 [Example 95, 8-(6-((2-(4-fluoropiperidin-1-yl)ethoxy)methyl)pyridin-3-yl)-3-methyl-1-(tetrahydro-2H-pyran-4-yl)-1H-imidazo[4,5-c]cinnolin-2(3H)-one]",47
5,"Cn1c(=O)n(C2CCOCC2)c2c3cc(-c4ccc(COCCN5CCC(C)(C)CC5)nc4)ccc3nnc21 [Example 96, 8-(6-((2-(4,4-dimethylpiperidin-1-yl)ethoxy)methyl)pyridin-3-yl)-3-methyl-1-(tetrahydro-2H-pyran-4-yl)-1H-imidazo[4,5-c]cinnolin-2(3H)-one]",17
6,"Cn1c(=O)n(C2CCOCC2)c2c3cc(-c4ccc(COCCN5CC6CC6C5)nc4)ccc3nnc21 (stereo not shown) [Example 98, 8-(6-((2-(3-azabicyclo[3.1.0]hexan-3-yl)ethoxy)methyl)pyridin-3-yl)-3-methyl-1-(tetrahydro-2H-pyran-4-yl)-1H-imidazo[4,5-c]cinnolin-2(3H)-one]",62
7,"Cn1c(=O)n(C2CCOCC2)c2c3cc(-c4ccc(COCCN5CC[C@@H](OC(F)F)C5)nc4)ccc3nnc21 [Example 99, (R)-8-(6-((2-(3-(difluoromethoxy)pyrrolidin-1-yl)ethoxy)methyl)pyridin-3-yl)-3-methyl-1-(tetrahydro-2H-pyran-4-yl)-1H-imidazo[4,5-c]cinnolin-2(3H)-one]",40
8,"Cn1c(=O)n(C2CCOCC2)c2c3cc(-c4ccc(COCCN5CC[C@H](OC(F)F)C5)nc4)ccc3nnc21 [Example 100, (S)-8-(6-((2-(3-(difluoromethoxy)pyrrolidin-1-yl)ethoxy)methyl)pyridin-3-yl)-3-methyl-1-(tetrahydro-2H-pyran-4-yl)-1H-imidazo[4,5-c]cinnolin-2(3H)-one]",16
9,"Cn1c(=O)n(C2CCOCC2)c2c3cc(-c4ccc(COCCN5CCC(OC(F)(F)F)CC5)nc4)ccc3nnc21 [Example 101, 3-methyl-1-(tetrahydro-2H-pyran-4-yl)-8-(6-((2-(4-(trifluoromethoxy)piperidin-1-yl)ethoxy)methyl)pyridin-3-yl)-1H-imidazo[4,5-c]cinnolin-2(3H)-one]",3.7
10,"C[C@@H](OCCN1CC2CC2C1)c1ccc(-c2ccc3nnc4c(c3c2)n(C2CCOCC2)c(=O)n4C)cn1 (stereo partly drawn) [Example 104, 8-(6-((1R)-1-(2-(3-azabicyclo[3.1.0]hexan-3-yl)ethoxy)ethyl)pyridin-3-yl)-3-methyl-1-(tetrahydro-2H-pyran-4-yl)-1H-imidazo[4,5-c]cinnolin-2(3H)-one]",19
11,C[C@@H](OCCN1CCC(F)CC1)c1ccc(-c2ccc3nnc4c(c3c2)n(C2CCOCC2)c(=O)n4C)cn1 [Example 108],3.7
12,"C[C@@H](OCCN1CCC(OC(F)(F)F)CC1)c1ccc(-c2ccc3nnc4c(c3c2)n(C2CCOCC2)c(=O)n4C)cn1 [Example 109, (R)-3-methyl-1-(tetrahydro-2H-pyran-4-yl)-8-(6-(1-(2-(4-(trifluoromethoxy)piperidin-1-yl)ethoxy)ethyl)pyridin-3-yl)-1H-imidazo[4,5-c]cinnolin-2(3H)-one]",2.1
13,"C[C@@H](OCCN1CCC(C)(C)C1)c1ccc(-c2ccc3nnc4c(c3c2)n(C2CCOCC2)c(=O)n4C)cn1 [Example 111, (R)-8-(6-(1-(2-(3,3-dimethylpyrrolidin-1-yl)ethoxy)ethyl)pyridin-3-yl)-3-methyl-1-(tetrahydro-2H-pyran-4-yl)-1H-imidazo[4,5-c]cinnolin-2(3H)-one]",12
14,"CC(C)O[C@@H]1CCN(CCO[C@H](C)c2ccc(-c3ccc4nnc5c(c4c3)n(C3CCOCC3)c(=O)n5C)cn2)C1 [Example 113, 8-(6-((R)-1-(2-((R)-3-isopropoxypyrrolidin-1-yl)ethoxy)ethyl)pyridin-3-yl)-3-methyl-1-(tetrahydro-2H-pyran-4-yl)-1H-imidazo[4,5-c]cinnolin-2(3H)-one]",7.5
15,"COC[C@@H]1CCN(CCO[C@H](C)c2ccc(-c3ccc4nnc5c(c4c3)n(C3CCOCC3)c(=O)n5C)cn2)C1 [Example 119, 8-(6-((R)-1-(2-((R)-3-(methoxymethyl)pyrrolidin-1-yl)ethoxy)ethyl)pyridin-3-yl)-3-methyl-1-(tetrahydro-2H-pyran-4-yl)-1H-imidazo[4,5-c]cinnolin-2(3H)-one]",2.4
16,"C[C@@H](OCCN1CCCCC1)c1ccc(-c2ccc3nnc4c(c3c2)n(C2CCOCC2)c(=O)n4C)cn1 [Example 120, (R)-3-methyl-8-(6-(1-(2-(piperidin-1-yl)ethoxy)ethyl)pyridin-3-yl)-1-(tetrahydro-2H-pyran-4-yl)-1H-imidazo[4,5-c]cinnolin-2(3H)-one]",11
17,"C[C@@H](OCCN1CCCC1)c1ccc(-c2ccc3nnc4c(c3c2)n(C2CCOCC2)c(=O)n4C)cn1 [Example 121, (R)-3-methyl-8-(6-(1-(2-(pyrrolidin-1-yl)ethoxy)ethyl)pyridin-3-yl)-1-(tetrahydro-2H-pyran-4-yl)-1H-imidazo[4,5-c]cinnolin-2(3H)-one]",13
18,"C[C@@H](OCCN1CC[C@@H](OC2CC2)C1)c1ccc(-c2ccc3nnc4c(c3c2)n(C2CCOCC2)c(=O)n4C)cn1 [Example 122, 8-(6-((R)-1-(2-((R)-3-cyclopropoxypyrrolidin-1-yl)ethoxy)ethyl)pyridin-3-yl)-3-methyl-1-(tetrahydro-2H-pyran-4-yl)-1H-imidazo[4,5-c]cinnolin-2(3H)-one]",4.3
19,"C[C@@H]1CCN(CCO[C@H](C)c2ccc(-c3ccc4nnc5c(c4c3)n(C3CCOCC3)c(=O)n5C)cn2)C1 [Example 123, 3-methyl-8-(6-((R)-1-(2-((R)-3-methylpyrrolidin-1-y)ethoxy)ethyl)pyridin-3-yl)-1-(tetrahydro-2H-pyran-4-yl)-1H-imidazo[4,5-c]cinnolin-2(3H)-one]",16
20,"C[C@@H](OCCN1CCC2(CCC2)CC1)c1ccc(-c2ccc3nnc4c(c3c2)n(C2CCOCC2)c(=O)n4C)cn1 [Example 124, (R)-8-(6-(1-(2-(7-azaspiro[3.5]nonan-7-yl)ethoxy)ethyl)pyridin-3-yl)-3-methyl-1-(tetrahydro-2H-pyran-4-yl)-1H-imidazo[4,5-c]cinnolin-2(3H)-one]",1.1
21,"C[C@@H](OCCN1CCC2(CCO2)CC1)c1ccc(-c2ccc3nnc4c(c3c2)n(C2CCOCC2)c(=O)n4C)cn1 [Example 125, (R)-8-(6-(1-(2-(1-oxa-7-azaspiro[3.5]nonan-7-yl)ethoxy)ethyl)pyridin-3-yl)-3-methyl-1-(tetrahydro-2H-pyran-4-yl)-1H-imidazo[4,5-c]cinnolin-2(3H)-one]",6.3
22,"C[C@H]1CCN(CCO[C@H](C)c2ccc(-c3ccc4nnc5c(c4c3)n(C3CCOCC3)c(=O)n5C)cn2)C1 [Example 126, 3-methyl-8-(6-((R)-1-(2-((S)-3-methylpyrrolidin-1-yl)ethoxy)ethyl)pyridin-3-yl)-1-(tetrahydro-2H-pyran-4-yl)-1H-imidazo[4,5-c]cinnolin-2(3H)-one]",20
23,"C[C@@H](OCCN1CC2(COC2)C1)c1ccc(-c2ccc3nnc4c(c3c2)n(C2CCOCC2)c(=O)n4C)cn1 [Example 127, (R)-8-(6-(1-(2-(2-oxa-6-azaspiro[3.3]heptan-6-yl)ethoxy)ethyl)pyridin-3-yl)-3-methyl-1-(tetrahydro-2H-pyran-4-yl)-1H-imidazo[4,5-c]cinnolin-2(3H)-one]",13
24,"C[C@@H](OCCN1CCC(C2COC2)CC1)c1ccc(-c2ccc3nnc4c(c3c2)n(C2CCOCC2)c(=O)n4C)cn1 [Example 128, (R)-3-methyl-8-(6-(1-(2-(4-(oxetan-3-yl)piperidin-1-yl)ethoxy)ethyl)pyridin-3-yl)-1-(tetrahydro-2H-pyran-4-yl)-1H-imidazo[4,5-c]cinnolin-2(3H)-one]",4.6
25,"C[C@@H](OCCN1CCC(C)(C#N)C1)c1ccc(-c2ccc3nnc4c(c3c2)n(C2CCOCC2)c(=O)n4C)cn1 (stereo partly drawn) [Example 130, 3-methyl-1-(2-((R)-1-(5-(3-methyl-2-oxo-1-(tetrahydro-2H-pyran-4-yl)-2,3-dihydro-1H-imidazo[4.5-c]cinnolin-8-yl)pyridin-2-yl)ethoxy)ethyl) pyrrolidine-3-carbonitrile]",26
26,"CC(C)n1c(=O)n(C)c2nnc3cc(F)c(-c4ccc(COCCN5CCC(C)(C)C5)nc4)cc3c21 [Example 132, 8-(6-((2-(3,3-dimethylpyrrolidin-1-yl)ethoxy)methyl)pyridin-3-yl)-7-fluoro-1-isopropyl-3-methyl-1H-imidazo[4,5-c]cinnolin-2(3H)-one]",22
